Experimental data published in patent US8084612B2, “Proline analogs as ligands for cannabinoid receptors” (Purdue Pharma L.P., priority 2008, dated 2011).

Assays:
CB2 receptor = CB2 receptor (Homo sapiens, UniProt P34972); test: Competition binding assay, [3H]-CP55,940 displacement, CB2 CHO-K1 membranes
Procedure: (§1) CHO-K1 cells expressing CB1 or CB2 receptors (which were purchased from EuroScreen; Brussels, Belgium) were grown to confluency (20-40×10^6 cells) in 10 cm dishes. Cells were lysed by adding 10 mL/dish ice-cold hypotonic buffer (2.5 mM MgCl2, 50 mM HEPES, pH 7.4). Cell lysates were removed using a cell scraper and homogenized 30 seconds with a BioSpec Tissue Tearer™ (Racine, Wis.). Membranes were collected by centrifugation at 30,000 g for 15 min at 4° C. and pellets resuspended in hypotonic buffer to a final concentration of 1-3 mg/mL.
(§2) Membranes (CB1 or CB2 CHO-K1: 1 μg/well) were incubated at room temperature for 1 hour with 0.5 nM [^3H]-CP55,940 in 500 μL of assay buffer (5 mM MgCl2, 5 mg/mL BSA, 2.5 mM EDTA and 50 mM Tris-HCl, pH 7.4) in the presence of increasing concentrations of unlabeled competitors, e.g. WIN55, 212-2 (a CB1 receptor agonist available from Sigma-Aldrich, St. Louis, Mo.) or ligand of interest. The final concentration of DMSO was 5% . Reactions were terminated by rapid filtration using a 96-well filtration apparatus (Brandel, Gaithersburg, Md.) onto GE/C filter plates (PerkinElmer Life Sciences; Boston, Mass.) pretreated with polyethylenimine 0.5% (w/v). The plates were washed three times with 500 μL of ice-cold assay buffer. Filter plates were subsequently dried at 50° C. for 2-3 hours. Fifty microliters per well BetaScint 20 (PerkinElmer) scintillation cocktail was added and plates counted in a TopCount (PerkinElmer) for 1 min/well.
(§3) Data were analyzed using GraphPad PRISM™, v. […] The concentrations of unlabeled competitors that yield 50% displacement (IC50 values) were calculated from each curve by a non-linear regression analysis fined to a one-site model. In separate experiments, equilibrium dissociation constants (Kd values) were determined for each receptor. […] All Ki values are presented as mean±SEM of n determinations.

CB1 receptor [1] = biological target: T1, CB1 receptor (Homo sapiens, UniProt P21554); test: Competition binding assay, [3H]-CP55,940 displacement, CB1 CHO-K1 membranes
Procedure: as §1, §2, §3

CB1 receptor [2] = biological target: T1, CB1 receptor; test: GTPγ[35S] functional binding assay, CB1 membranes; assay type: biochemical; design: Brussels, Belgium; host or cells: CHO-K1; Emax: reference not given here; settings: GTPγ[35S] binding; for EC50: n.a. = no activity detected at the highest concentration tested, read-out: CB1 EC 50

Sequence of CB2 receptor (P34972 whole entry): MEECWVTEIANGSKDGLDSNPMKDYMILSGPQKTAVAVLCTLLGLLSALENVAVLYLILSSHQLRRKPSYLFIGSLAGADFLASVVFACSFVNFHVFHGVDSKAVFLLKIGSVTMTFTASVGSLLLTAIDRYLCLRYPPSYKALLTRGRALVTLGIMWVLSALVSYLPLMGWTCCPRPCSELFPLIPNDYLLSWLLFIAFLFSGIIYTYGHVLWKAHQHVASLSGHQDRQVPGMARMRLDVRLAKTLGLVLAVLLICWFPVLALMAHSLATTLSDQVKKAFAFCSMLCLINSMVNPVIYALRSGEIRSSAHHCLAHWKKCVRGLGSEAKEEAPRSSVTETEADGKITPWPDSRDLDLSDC
T1 sequence (P21554 whole entry): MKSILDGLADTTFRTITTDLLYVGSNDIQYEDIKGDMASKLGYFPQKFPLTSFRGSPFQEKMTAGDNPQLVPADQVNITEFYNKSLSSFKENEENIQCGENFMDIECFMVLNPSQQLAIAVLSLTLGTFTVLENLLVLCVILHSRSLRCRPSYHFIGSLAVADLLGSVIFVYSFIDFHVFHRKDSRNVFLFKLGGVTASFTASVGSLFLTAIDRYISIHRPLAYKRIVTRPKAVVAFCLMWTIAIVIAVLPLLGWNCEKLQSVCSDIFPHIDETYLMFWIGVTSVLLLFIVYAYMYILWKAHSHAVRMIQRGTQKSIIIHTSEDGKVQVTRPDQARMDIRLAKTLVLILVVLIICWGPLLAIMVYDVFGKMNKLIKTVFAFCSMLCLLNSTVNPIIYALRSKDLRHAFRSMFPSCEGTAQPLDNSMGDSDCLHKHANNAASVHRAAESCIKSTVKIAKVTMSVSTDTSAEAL

O=C(Nc1sc2c(c1C(=O)N1CCCCC1)CCCCC2)[C@H]1CCCN1S(=O)(=O)c1ccccc1 [AAA(a)]
Ki (CB2 receptor): 4.3 nM
Ki (CB1 receptor [1]): 4.7 nM
Emax (CB1 receptor [2]): 80%
EC50 (CB1 receptor [2]): 702 nM

O=C(Nc1sc2c(c1C(=O)N1CCCCC1)CCCCC2)[C@@H]1CCCN1S(=O)(=O)c1ccccc1 [AAA(b)]
Ki (CB1 receptor [1]): 366 nM
Emax (CB1 receptor [2]): 8%

O=C(Nc1sc2c(c1C(=O)N1CCCCC1)CCCCC2)[C@H]1CCCN1S(=O)(=O)c1ccc(F)cc1 [AAB(a)]
Ki (CB2 receptor): 35.8 nM
Ki (CB1 receptor [1]): 43.5 nM
Emax (CB1 receptor [2]): 68%
EC50 (CB1 receptor [2]): 1910 nM

Cc1ccc(S(=O)(=O)N2CCC[C@@H]2C(=O)Nc2sc3c(c2C(=O)N2CCCCC2)CCCCC3)cc1 [AAC(a)]
Ki (CB2 receptor): 154 nM
Ki (CB1 receptor [1]): 261 nM
Emax (CB1 receptor [2]): 8%

CS(=O)(=O)N1CCC[C@@H]1C(=O)Nc1sc2c(c1C(=O)N1CCCCC1)CCCCC2 [AAD(a)]
Ki (CB1 receptor [1]): 2190 nM

O=C(Nc1sc2c(c1C(=O)N1CCCCC1)CCCCC2)[C@H]1CCCN1S(=O)(=O)c1cccs1 [AAF(a)]
Ki (CB2 receptor): 4.5 nM
Ki (CB1 receptor [1]): 7.3 nM
Emax (CB1 receptor [2]): 150%
EC50 (CB1 receptor [2]): 425 nM

CCOC(=O)c1c(NC(=O)[C@H]2CCCN2S(=O)(=O)c2ccccc2)sc2c1CCCCC2 [ABE(a)]
Ki (CB2 receptor): 11.5 nM
Ki (CB1 receptor [1]): 15.1 nM
EC50 (CB1 receptor [2]): > 25000 nM

O=C(Nc1sccc1C(=O)N1CCCCC1)[C@H]1CCCN1S(=O)(=O)c1ccccc1 [CAA(a)]
Ki (CB1 receptor [1]): 1890 nM

O=C(Nc1ccsc1C(=O)N1CCCCC1)[C@H]1CCCN1S(=O)(=O)c1ccccc1 [DAA(a)]
Ki (CB1 receptor [1]): 1240 nM

O=C(Nc1sc2c(c1C(=O)N1CCCCC1)CCCCC2)[C@H]1CCCN1C(=O)c1ccccc1 [EAA(a)]
Ki (CB1 receptor [1]): 9290 nM

O=C(Nc1ccccc1C(=O)N1CCCCC1)[C@H]1CCCN1S(=O)(=O)c1ccccc1 [GAA(a)]
Ki (CB1 receptor [1]): 1130 nM
